Where a SMILES comes first, the peptide text is derived from it. The star is where a group is joined. Cbz = O=C(OCc1ccccc1)*
Experiments:
[1] = system: castrated MPK38−/− male mice; test: Testosterone replacement in castrated male mice; type: in vivo, mouse
Experimental: A mixture of ketamine (34 mg/kg), xylazine (6.8 mg/kg) and acepromazine (1.1 mg/kg) was dissolved in saline, and the mice were anesthetized using this solution, and then surgery was performed. The surgical site was shaved and washed, and then sterilized with 70% alcohol. For castration, after abdomen midline incision, castration was performed such that the testes and attached fat pads were left intact. The testes were removed through an incision, but the testicular ducts and blood vessels supplying the testes were ligated with sterile silk suture and the testicular fat pads were put back, followed by closure with sterile silk suture. For sham castration, the testes with attached fat pads were exposed and put back without organ extirpation after abdominal incision, and the incision was closed with sterile silk suture. For ovariectomy, after midline abdominal incision, the uterus, oviducts, and ovaries with the fat pads were left intact. The ovaries were removed through an incision, but the oviduct and blood vessels supplying the ovaries were ligated with sterile silk suture and the ovarian fat pads were put back, followed by closure with sterile silk suture. […] After surgery, mice were monitored until they are fully recovered from anesthesia. […]

mouse hepatocytes = test: Effects of DHT and E2 on lipid metabolism and MPK38 kinase activity in hepatocytes; type: cell-based; conditions: 10 nM each, compared with adipocytes
MPK38 = test: Immunoblot analysis of MPK38 stability and ubiquitination in adipocytes treated with DHT or E2; type: cell-based, mouse; conditions: for stability of MPK38: adipocytes of 4.5-month-old male and female mice, 10 nM, 24 hours, then cycloheximide 20 μg/ml; for endogenous ubiquitination of MPK38: adipocytes, regardless of gender
Experimental: In order to determine whether or not sex hormones such as testosterone and estrogen affect the kinase activity and expression of MPK38, immunoblot analysis was performed on adipocytes derived from 4.5-month-old normal male and female mice treated with DHT and E2.

MPK38-Mdm2 complex = test: Endogenous MPK38-Mdm2 complex formation (immunoprecipitation/immunoblot) in adipocytes; type: cell-based, mouse; conditions: vs control group not treated with DHT or E2
Experimental: Furthermore, since MPK38 physically interacts with Mdm2, whether or not DHT and E2 are involved in the decomposition of MPK38 mediated by Mdm2 was determined.

ASK1/TGF-β/p53 signaling = test: MPK38-dependent ASK1/TGF-β/p53 signaling in adipocytes treated with DHT or E2; type: cell-based, mouse; conditions: vs control group not treated with DHT or E2; H2O2, TGF-β1 or 5FU stimulation
MPK38-Trx complex = test: Endogenous MPK38-Trx complex formation in adipocytes; type: cell-based, mouse; conditions: both females and males
Experimental: (§1) In order to further determine whether or not testosterone increases the stability of MPK38, the effect of DHT on the formation of a complex of MPK38 with either ZPR9 or Trx was analyzed. The reason for this is that ZPR9 or Trx acts as a stabilizer or destabilizer of MPK38.

MPK38-ZPR9 complex = test: Endogenous MPK38-ZPR9 complex formation in adipocytes; type: cell-based, mouse; conditions: both females and males
Experimental: as §1

Row | Structure (SMILES) | effects of castration on metabolism after testosterone replacement ([1]; castrated male mice, T replacement (FIG. 14)) | glucose or lipid metabolism ([1]; middle-aged (7 months old) MPK38−/− male mice, testosterone pellets 25 μg/day) | effects on lipid metabolism and MPK38 kinase activity in liver cells (mouse hepatocytes) | stability of MPK38 (MPK38) | endogenous ubiquitination of MPK38 (MPK38) | formation of endogenous MPK38-Mdm2 complex (MPK38-Mdm2 complex) | ASK1/TGF-β/p53 signaling (ASK1/TGF-β/p53 signaling) | formation of MPK38-Trx complex (MPK38-Trx complex) | formation of endogenous MPK38-ZPR9 complex (MPK38-ZPR9 complex) | stability of MPK38 on exposure to proteasome inhibitor (MPK38; 10 μM MG132, treated vs untreated group)
1 | C[C@]12CC[C@H]3[C@@H](CCC4=CC(=O)CC[C@@]43C)[C@@H]1CC[C@@H]2O [testosterone] | effects opposite to all of these results | did not affect |  |  |  |  |  |  |  | 
2 | C[C@]12CC[C@@H]3c4ccc(O)cc4CC[C@H]3[C@@H]1CC[C@@H]2O [E2] |  |  | similar | decreased | increased | increased | decreased | results opposite those of treatment with DHT | results opposite those of treatment with DHT | 
3 | CC(C)C[C@@H](C=O)NC(=O)[C@H](CC(C)C)NC(=O)[C@H](CC(C)C)NC(=O)OCc1ccccc1 [MG132] (Cbz-Leu-Leu-Leu-aldehyde) |  |  |  |  |  |  |  |  |  | increase
4 | C[C@]12CCC(=O)C[C@@H]1CC[C@@H]1[C@@H]2CC[C@]2(C)[C@@H](O)CC[C@@H]12 [DHT] |  |  | similar | increased | decreased | decreased | increased | decreased | increased | 

Source: US20240100131A1, “NOVEL USE OF MPK38/MELK AS THERAPEUTIC AGENT FOR OBESITY OR METABOLIC DISEASES SPECIFIC TO MIDDLE-AGED MEN” (priority 2021, published 2024)
